According to patent US11560366B2, “Bicyclo[1.1.1]pentane inhibitors of dual leucine zipper (DLK) kinase for the treatment of disease” (Board of Regents, The University of Texas System, priority 2019, dated 2023):
Where two headings read alike, the source gives them in different places.

Columns and labels:
human DLK = human DLK (Homo sapiens (Human), UniProt Q12852); assay: DLK Kd determination (KINOMEscan KdELECT, DiscoveRx); type: binding
Protocol: The DLK dissociation constants (Kd) have been determined in the KINOMEscan KdELECT Service at DiscoveRx.
A fusion protein of full length of human DLK (amino acids 1-859) and the DNA binding domain of NFkB was expressed in transiently transfected HEK293 cells. From these HEK 293 cells, extracts were prepared in M-PER extraction buffer (Pierce) in the presence of Protease Inhibitor Cocktail Complete (Roche) and Phosphatase Inhibitor Cocktail Set II (Merck) per manufacturers' instructions. The DLK fusion protein was labeled with a chimeric double-stranded DNA tag containing the NFkB binding site (5′-[sequence]-3′, SEQ ID NO:1) fused to an amplicon for qPCR readout, which was added directly to the expression extract (the final concentration of DNA-tag in the binding reaction is 0.1 nM).
The liganded beads were blocked with excess biotin and washed with blocking buffer (SeaBlock (Pierce), 1% BSA, 0.05% Tween 20, 1 mM DTT) to remove unbound ligand and to reduce nonspecific binding.
Extracts were used directly in binding assays without any enzyme purification steps at a >10,000-fold overall stock dilution (final DNA-tagged enzyme concentration <0.1 nM). Extracts were loaded with DNA-tag and diluted into the binding reaction in a two step process. First extracts were diluted 1:100 in 1× binding buffer (PBS/0.05% Tween 20/10 mM DTT/0.1% BSA/2 μg/ml sonicated salmon sperm DNA) containing 10 nM DNA-tag. This dilution was allowed to equilibrate at room temperature for 15 minutes and then subsequently diluted 1:100 in 1× binding buffer. Test compounds were prepared as 111× stocks in 100% DMSO. Kds were determined using an 11-point 3-fold compound dilution series with three DMSO control points. […] The compounds were then diluted directly into the assays such that the final concentration of DMSO was 0.9%. All reactions performed in polypropylene 384-well plates. Each was a final volume of 0.02 mL. Assays were incubated with shaking for 1 hour at room temperature. Then the beads were pelleted and washed with wash buffer (1×PBS, 0.05% Tween 20) to remove displaced kinase and test compound. […] The kinase concentration in the eluates was measured by qPCR. qPCR reactions were assembled by adding 2.5 μL of kinase eluate to 7.5 μL of qPCR master mix containing 0.15 μM amplicon primers and 0.15 μM amplicon probe.
Test compounds were prepared as 111× stocks in 100% DMSO. Kds were determined using an 11-point 3-fold compound dilution series with three DMSO control points. […] The compounds were then diluted directly into the assays such that the final concentration of DMSO was 0.9%. The Kds were determined using a compound top concentration of 30,000 nM. Kd measurements were performed in duplicate.
Binding constants (Kds) were calculated with a standard dose-response curve using the Hill equation:
The Hill Slope was set to −1.

[1] = Metabolic stability in liver microsomes, mouse; type: in vitro ADME, CD-1 mouse; conditions: CD-1, liver microsomes, 0.5 mg/mL microsomes, NADPH, 45 minutes, 37° C., read-out: Half-life in liver microsomes (t1/2, minutes)
Protocol: (§1) The test compound was incubated with liver microsomes (0.5 mg/mL) from CD-1 mouse, Sprague Dawley rat, Beagle dog, Cynomolgus monkey, and human in the presence of NADPH for 45 minutes at 37° C. The % parent remaining over time was determined by LC-MS/MS, using peak area ratios. Half-life (t1/2) was calculated using the following equation: t1/2=ln2/k, where k is the rate constant of parent decay over time (slope of the plot of log[% parent remaining] versus time).

[2] = Metabolic stability in liver microsomes, rat; type: in vitro ADME; conditions: Sprague Dawley, 0.5 mg/mL microsomes, NADPH, 45 minutes, 37° C., read-out: Half-life in liver microsomes (t1/2, minutes)
Protocol: as §1

[3] = Metabolic stability in liver microsomes, dog; type: in vitro ADME; conditions: Beagle, 0.5 mg/mL microsomes, NADPH, 45 minutes, 37° C., read-out: Half-life in liver microsomes (t1/2, minutes)
Protocol: as §1

[4] = Metabolic stability in liver microsomes, monkey; type: in vitro ADME, Cynomolgus monkey; conditions: 0.5 mg/mL microsomes, NADPH, 45 minutes, 37° C., read-out: Half-life in liver microsomes (t1/2, minutes)
Protocol: as §1

[5] = Metabolic stability in liver microsomes, human; type: in vitro ADME; conditions: 0.5 mg/mL microsomes, NADPH, 45 minutes, 37° C., read-out: Half-life in liver microsomes (t1/2, minutes)
Protocol: as §1

[6] = Mouse pharmacokinetics, single dose; type: in vivo, male C57BL/6 mice; conditions: for Kp / unbound brain-to-plasma ratio (Kp,uu): brain and plasma, po, 10 mg/kg, based on AUC; for Kp / unbound brain-to-plasma ratio (Kp,uu) / AUC(0-t) / Cmax / bioavailability: oral dose 10 mg/kg; for Kp: read-out: Brain/Plasma Ratio; for unbound brain-to-plasma ratio (Kp,uu): read-out: Free Brain/Plasma Ratio; for clearance / half-life / Vd: in vivo; for Vd: read-out: Vss; for AUC(0-t) / Cmax / bioavailability: plasma; for clearance in mice, comparison in words / half-life in mice, comparison in words: relative to comparator compounds 13 or 14b; for brain penetration, in words: relative to 13 and 14b and to 1a, 4b, 8a and 9b
[7] = Metabolic stability in liver microsome preparations, overall comparison; type: in vitro ADME; conditions: relative to comparator compounds 13 or 14/14b (WO2018207072)
Protocol: as §1

[8] = Rat pharmacokinetics, single dose; type: in vivo, Wistar Han rats; conditions: rat, in vivo, Wistar Han rats
Protocol: Pharmacokinetics for compounds 13, 1a, and 9b were determined using single dosage of Wistar Han rats using techniques that are well known in the art.

[9] = male, C57BL/6, mouse, male C57BL/6 mice
[10] = mouse, male C57BL/6 mice, IV dose 0.3 mg/kg (1a, 4b, 13, 14b, 16; IV dose of 8a, 9b not stated)
[11] = full length human DLK fusion protein, qPCR readout, duplicate, read-out: Kd
[12] = male, C57BL/6, mouse, iv, 1 mg/kg

human DLK, sequence (Q12852 whole entry): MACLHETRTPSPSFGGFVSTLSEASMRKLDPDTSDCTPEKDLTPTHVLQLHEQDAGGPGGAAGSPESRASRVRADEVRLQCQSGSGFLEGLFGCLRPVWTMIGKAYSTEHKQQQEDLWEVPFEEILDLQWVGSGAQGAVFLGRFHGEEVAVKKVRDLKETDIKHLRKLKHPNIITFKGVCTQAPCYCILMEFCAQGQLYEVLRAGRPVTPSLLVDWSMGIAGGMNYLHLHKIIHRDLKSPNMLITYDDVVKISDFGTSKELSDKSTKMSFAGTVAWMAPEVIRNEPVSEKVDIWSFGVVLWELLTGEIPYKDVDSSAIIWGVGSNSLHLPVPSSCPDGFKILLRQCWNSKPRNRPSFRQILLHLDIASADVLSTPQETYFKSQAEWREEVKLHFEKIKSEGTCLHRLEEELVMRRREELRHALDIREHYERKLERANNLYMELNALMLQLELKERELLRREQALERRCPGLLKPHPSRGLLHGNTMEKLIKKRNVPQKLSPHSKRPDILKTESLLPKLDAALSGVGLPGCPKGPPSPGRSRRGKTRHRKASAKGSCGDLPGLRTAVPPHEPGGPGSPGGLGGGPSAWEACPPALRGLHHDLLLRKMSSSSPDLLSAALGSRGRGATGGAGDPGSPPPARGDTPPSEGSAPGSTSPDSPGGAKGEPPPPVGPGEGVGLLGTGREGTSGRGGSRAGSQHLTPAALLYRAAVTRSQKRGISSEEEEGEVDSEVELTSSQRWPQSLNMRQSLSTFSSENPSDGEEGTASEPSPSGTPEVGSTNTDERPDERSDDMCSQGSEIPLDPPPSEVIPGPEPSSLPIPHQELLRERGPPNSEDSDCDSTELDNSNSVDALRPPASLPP

Structure (SMILES) | Kd (human DLK; read-out: Kd) [nM] | half-life [1] [min] | half-life [2] [min] | half-life [5] [min] | Kp [6, 9] | unbound brain-to-plasma ratio (Kp,uu) [6, 9] | clearance [6, 10] [mL/min/kg] | half-life [6, 10] [h] | Vd [6, 10] [L/kg] | AUC(0-t) ([6]; mouse, male C57BL/6 mice) [µM·h] | Cmax ([6]; mouse, male C57BL/6 mice) [µM] | bioavailability ([6]; mouse, male C57BL/6 mice) [%] | other results
Nc1ncc(-c2cn(C34CC(N5CCC(F)(F)CC5)(C3)C4)c(C(O)C3CC3)n2)cc1C(F)(F)F (stereo not shown) [Example 12, (4-(6-amino-5-(trifluoromethyl)pyridin-3-yl)-1-(3-(4,4-difluoropiperidin-1-yl)bicyclo[1.1.1]pentan-1-yl)-1H-imidazol-2-yl)(cyclopropyl)methanol] | 2.9 | – | – | – | – | – | – | – | – | – | – | – | –
CC(C)[C@H](O)c1nc(-c2cnc(N)c(C(F)(F)F)c2)cn1C12CC(F)(C1)C2 (single isomer, unassigned) [Example 4b] | 0.29 | 71 | 30 | 213 | 1.72 | 1.06 | 24.5 | 1.86 | 3.3 | 8.67 | 5.42 | 49.2 | half-life [3]: 355 min; half-life [4]: 22 min; clearance in mice, comparison in words [6]: reduced clearance; half-life in mice, comparison in words [6]: longer half-life; microsomal stability, comparison in words [7]: improvements to microsomal stability
Nc1ncc(-c2cn(C34CC(N5CCC(F)(F)CC5)(C3)C4)c(C(O)C3CC3)n2)cc1OC(F)(F)F (stereo not shown) [Example 11, (4-(6-amino-5-(trifluoromethoxy)pyridin-3-yl)-1-(3-(4,4-difluoropiperidin-1-yl)bicyclo[1.1.1]pentan-1-yl)-1H-imidazol-2-yl)(cyclopropyl)methanol] | 3.1 | – | – | – | – | – | – | – | – | – | – | – | –
Nc1ncc(-c2cn(C34CC(N5CCC(F)(F)CC5)(C3)C4)c([C@@H](O)C(F)(F)F)n2)cc1C(F)(F)F (single isomer, unassigned) [Example 10a] | 0.62 | – | – | – | – | – | – | – | – | – | – | – | –
Nc1ncc(-c2cn(C34CC(C3)C4)c([C@@H](O)C(F)(F)F)n2)cc1OC(F)(F)F [Compound 13, (R)-1-(4-(6-amino-5-(trifluoromethoxy)-pyridin-3-yl)-1-(bicyclo[1.1.1]pentan-1-yl)-1H-imidazol-2-yl)-2,2,2-trifluoroethan-1-ol, reference compound] | – | 221 | 77 | 121 | 2.97 | 1.54 | 14.1 | 3.53 | 4.6 | 14.4 | 1.95 | 51 | Kd (human DLK; [11]): 1.6 nM; half-life [3]: 109 min; half-life [4]: 56 min; clearance ([8]; IV dose 1 mg/kg): 12.1 mL/min/kg; half-life ([8]; IV dose 1 mg/kg): 9.94 h; Vd ([8]; IV dose 1 mg/kg, read-out: Vss): 7.9 L/kg; AUC(0-t) ([8]; oral dose 3 mg/kg): 7.59 µM·h; Cmax ([8]; oral dose 3 mg/kg): 0.909 µM; bioavailability ([8]; oral dose 3 mg/kg): 86.3%
CC(C)[C@H](O)c1nc(-c2cnc(N)c(C(F)(F)F)c2)cn1C12CC(C1)C2 [Compound 14b, (S)-1-(4-(6-amino-5-(trifluoromethyl)pyridin-3-yl)-1-(bicyclo[1.1.1]pentan-1-yl)-1H-imidazol-2-yl)-2-methylpropan-1-ol, reference compound] | – | 16 | 23 | 26 | – | – | 76.7 | 0.7 | 3.72 | 3.62 | 3.38 | 61.2 | Kd (human DLK; [11]): 0.12 nM; half-life [3]: 154 min; half-life [4]: 7 min
CC(C)[C@H](O)c1nc(-c2cnc(N)c(OC(F)(F)F)c2)cn1C12CC(F)(C1)C2 (single isomer, unassigned) [Example 3b] | 0.24 | – | – | – | – | – | – | – | – | – | – | – | –
Nc1ncc(-c2cn(C34CC(F)(C3)C4)c(C(O)C3CC3)n2)cc1OC(F)(F)F (stereo not shown) [Example 5, (4-(6-amino-5-(trifluoromethoxy)pyridin-3-yl)-1-(3-fluorobicyclo[1.1.1]pentan-1-yl)-1H-imidazol-2-yl)(cyclopropyl)methanol] | 5.2 | – | – | – | – | – | – | – | – | – | – | – | –
CC(C)[C@@H](O)c1nc(-c2cnc(N)c(C(F)(F)F)c2)cn1C12CC(N3CCC(F)(F)CC3)(C1)C2 (single isomer, unassigned) [Example 7a] | 0.21 | – | 566 | 70 | – | – | – | – | – | – | – | – | –
CC(C)[C@@H](O)c1nc(-c2cnc(N)c(OC(F)(F)F)c2)cn1C12CC(N3CCC(F)(F)CC3)(C1)C2 (single isomer, unassigned) [Example 8a] | 0.5 | 322 | 201 | 297 | 0.82 | 0.38 | 7 | 6.7 | 3.8 | 41.4 | 3.54 | 106 | –
Nc1ncc(-c2cn(C34CC(N5CCOCC5)(C3)C4)c([C@@H](O)C(F)(F)F)n2)cc1OC(F)(F)F [Compound 16, (R)-1-(4-(6-amino-5-(trifluoromethoxy)pyridin-3-yl)-1-(3-morpholinobicyclo[1.1.1]pentan-1-yl)-1H-imidazol-2-yl)-2,2,2-trifluoroethan-1-ol, reference compound] | – | 1040 | 1500 | 260 | 0.21 | 0.16 | 4.4 | 5.2 | 1.8 | 70.3 | 11.9 | 92.1 | Kd (human DLK; [11]): 0.36 nM; brain penetration, in words ([6]; mouse): reduced brain penetration; clearance in mice, comparison in words [6]: reduced clearances; half-life in mice, comparison in words [6]: longer half-lives; microsomal stability, comparison in words [7]: improved microsomal stability
Nc1ncc(-c2cn(C34CC(F)(C3)C4)c([C@H](O)C(F)(F)F)n2)cc1OC(F)(F)F [Example 1b, (S)-1-(4-(6-amino-5-(trifluoromethoxy)pyridin-3-yl)-1-(3-fluorobicyclo[1.1.1]pentan-1-yl)-1H-imidazol-2-yl)-2,2,2-trifluoroethanol] | – | – | – | – | – | – | – | – | – | – | – | – | Kd (human DLK): 120 nM
CC(C)C(O)c1nc(-c2cnc(N)c(C(F)(F)F)c2)cn1C12CC(C1)C2 (stereo not shown) [Compound 14, 1-(4-(6-amino-5-(trifluoromethyl)pyridin-3-yl)-1-(bicyclo[1.1.1]pentan-1-yl)-1H-imidazol-2-yl)-2-methylpropan-1-ol, reference compound] | – | – | 27 | 41 | – | – | – | – | – | – | – | – | Kd (human DLK; [11]): 0.3 nM
Nc1ncc(-c2cn(C34CC(F)(C3)C4)c(C(O)C3CC3)n2)cc1C(F)(F)F (stereo not shown) [Example 6, (4-(6-amino-5-(trifluoromethyl)pyridin-3-yl)-1-(3-fluorobicyclo[1.1.1]pentan-1-yl)-1H-imidazol-2-yl)(cyclopropyl)methanol] | 7.7 | – | – | – | – | – | – | – | – | – | – | – | –
Nc1ncc(-c2cn(C34CC(F)(C3)C4)c([C@@H](O)C(F)(F)F)n2)cc1C(F)(F)F [Example 2a, (R)-1-(4-(6-amino-5-(trifluoromethyl)pyridin-3-yl)-1-(3-fluorobicyclo[1.1.1]pentan-1-yl)-1H-imidazol-2-yl)-2,2,2-trifluoroethanol] | 4.4 | – | – | – | – | – | – | – | – | – | – | – | –
CC(C)[C@H](O)c1nc(-c2cnc(N)c(OC(F)(F)F)c2)cn1C12CC(N3CCOCC3)(C1)C2 [Compound 15, (S)-1-(4-(6-amino-5-(trifluoromethoxy)pyridin-3-yl)-1-(3-morpholinobicyclo[1.1.1]pentan-1-yl)-1H-imidazol-2-yl)-2-methylpropan-1-ol, reference compound] | – | 1840 | 3000 | 80 | 0.24 | 0.16 | – | – | – | – | – | – | clearance [6, 12]: 12 mL/min/kg; half-life [6, 12]: 5.4 h; Vd [6, 12]: 4.1 L/kg; brain penetration, in words ([6]; mouse): reduced brain penetration; clearance in mice, comparison in words [6]: reduced clearances; half-life in mice, comparison in words [6]: longer half-lives; microsomal stability, comparison in words [7]: improved microsomal stability
